Measurements taken from US20150252022A1, “RETINOIC ACID RECEPTOR-RELATED ORPHAN RECEPTOR MODULATORS AND USES THEREOF” (INNOV17 LLC, priority 2014, published 2015).

What was measured:
Type in all cases: cell-based
Conditions in all cases: 72 h; human CD4+ T cells under TH17-polarizing conditions, 3 days, supernatant ELISA
[1] = system: IL-21; assay: Human TH17 Cytokine Inhibition as measured by ELISA (IL-21)
Procedure: (§1) Peripheral blood mononuclear cells (PBMCs) were sourced from freshly prepared leukocyte enriched plasma (buffy coat) from healthy donors (New York Blood Center). PBMCs were isolated by density gradient centrifugation using Ficoll-Paque™ PLUS (GE Healthcare). Human CD4+ T cells were seeded into 96-well plates (5×10^4 cells/well) and activated with plate-bound anti-human (h)-CD3 antibody and soluble h-aCD28 (both at 1 ug/ml; eBioscience) and differentiated into TH17 cells with 20 ng/mL h-IL-6, 5 ng/mL h-TGF-β1, 10 ng/mL h-IL-23 (eBioscience) and 10 ng/mL IL-1β (Miltenyi Biotec) in serum-free TexMACS Medium (Miltenyi Biotec) supplemented with 1% Penicillin/Streptomycin (Lonza) for 3 days. CD4+ T cells propagated under TH17-polarizing conditions were cultured in the presence or absence of various concentrations of compounds with a final concentration of 0.1% DMSO. Supernatants were collected and stored at −20° C. until assayed for IL-17A, IL-17F and IL-21 levels by “Ready-Set-Go” ELISA kits (eBioscience) as per manufacturer's instructions. Endpoint absorbance was read at 450 nm using a microplate reader (Perkin Elmer).

[2] = system: IL-17A; assay: Human TH17 Cytokine Inhibition as measured by ELISA (IL-17A)
Procedure: as §1

[3] = system: IL-17F; assay: Human TH17 Cytokine Inhibition as measured by ELISA (IL-17F)
Procedure: as §1

IC50 [1] [µM] | IC50 [2] [µM] | IC50 [3] [µM] | SMILES
< 10 | < 10 | < 10 | O=C(CCc1ccccc1)N1CCC(Cn2ccc3cc(-c4cn[nH]c4)ccc32)CC1 [Example 79, 1-(4-((5-(1H-pyrazol-4-yl)-1H-indol-1-yl)methyl)piperidin-1-yl)-3-phenylpropan-1-one]
< 10 | < 10 | < 10 | O=C(Cc1ccccc1)N1CCC(Cn2ccc3cc(-c4cn[nH]c4)ccc32)CC1 [Example 88, 1-(4-((5-(1H-pyrazol-4-yl)-1H-indol-1-yl)methyl)piperidin-1-yl)-2-phenylethanone]
< 10 | < 10 | < 10 | O=C(CCCc1ccccc1)N1CCC(Cn2ccc3cc(-c4cn[nH]c4)ccc32)CC1 [Example 89, 1-(4-((5-(1H-pyrazol-4-yl)-1H-indol-1-yl)methyl)piperidin-1-yl)-4-phenylbutan-1-one]
< 10 | > 10 | < 10 | O=C(CCc1cnccn1)N1CCC(Cn2ccc3cc(-c4cn[nH]c4)ccc32)CC1 [Example 90, 1-(4-((5-(1H-pyrazol-4-yl)-1H-indol-1-yl)methyl)piperidin-1-yl)-3-(pyrazin-2-yl)propan-1-one]
< 10 | < 10 | < 10 | O=C(CCc1ccccn1)N1CCC(Cn2ccc3cc(-c4cn[nH]c4)ccc32)CC1 [Example 91, 1-(4-((5-(1H-pyrazol-4-yl)-1H-indol-1-yl)methyl)piperidin-1-yl)-3-(pyridin-2-yl)propan-1-one]
< 10 | < 10 | < 10 | O=C(COc1ccccc1)N1CCC(Cn2ccc3cc(-c4cn[nH]c4)ccc32)CC1 [Example 92, 1-(4-((5-(1H-pyrazol-4-yl)-1H-indol-1-yl)methyl)piperidin-1-yl)-2-phenoxyethanone]
< 10 | < 10 | < 10 | O=C(CCc1ccc(F)cc1)N1CCC(Cn2ccc3cc(-c4cn[nH]c4)ccc32)CC1 [Example 93, 1-(4-((5-(1H-pyrazol-4-yl)-1H-indol-1-yl)methyl)piperidin-1-yl)-3-(4-fluorophenyl)propan-1-one]
< 10 | < 10 | < 10 | O=C(CCc1cccc(F)c1)N1CCC(Cn2ccc3cc(-c4cn[nH]c4)ccc32)CC1 [Example 94, 1-(4-((5-(1H-pyrazol-4-yl)-1H-indol-1-yl)methyl)piperidin-1-yl)-3-(3-fluorophenyl)propan-1-one]
< 10 | < 10 | < 10 | O=C(CCc1ccccc1F)N1CCC(Cn2ccc3cc(-c4cn[nH]c4)ccc32)CC1 [Example 95, 1-(4-((5-(1H-pyrazol-4-yl)-1H-indol-1-yl)methyl)piperidin-1-yl)-3-(2-fluorophenyl)propan-1-one]
< 10 | < 10 | < 10 | O=C(CCc1ccccc1)N1CCC(CN2CCCc3cc(-c4cn[nH]c4)ccc32)CC1 [Example 98, 1-(4-((6-(1H-pyrazol-4-yl)-3,4-dihydroquinolin-1(2H)-yl)methyl)piperidin-1-yl)-3-phenylpropan-1-one]
> 10 | < 10 | < 10 | O=C(CC1CCCCC1)N1CCC(CN2CCCc3cc(-c4cn[nH]c4)ccc32)CC1 [Example 99, 1-(4-((6-(1H-pyrazol-4-yl)-3,4-dihydroquinolin-1(2H)-yl)methyl)piperidin-1-yl)-2-cyclohexylethanone]
> 10 | < 10 | < 10 | O=C(Cc1ccccc1)N1CCC(CN2CCCc3cc(-c4cn[nH]c4)ccc32)CC1 [Example 102, 1-(4-((6-(1H-pyrazol-4-yl)-3,4-dihydroquinolin-1(2H)-yl)methyl)piperidin-1-yl)-2-phenylethanone]
> 10 | < 10 | < 10 | O=C(CCCc1ccccc1)N1CCC(CN2CCCc3cc(-c4cn[nH]c4)ccc32)CC1 [Example 103, 1-(4-((6-(1H-pyrazol-4-yl)-3,4-dihydroquinolin-1(2H)-yl)methyl)piperidin-1-yl)-4-phenylbutan-1-one]

Further lines, the compound ahead of its results:

SMILES | IC50 [1] [µM] | IC50 [2] [µM] | IC50 [3] [µM]
CC(C)C(=O)N1CCC(CN2CCc3cc(-c4cn[nH]c4)ccc32)CC1 [Example 45, 1-(4-((5-(1H-pyrazol-4-yl)indolin-1-yl)methyl)piperidin-1-yl)-2-methylpropan-1-one] | > 10 | > 10 | > 10
O=C(c1ccccc1)N1CCCC(CN2CCc3cc(-c4cn[nH]c4)ccc32)CC1 (stereo not drawn) [Example 54, (4-((5-(1H-pyrazol-4-yl)indolin-1-yl)methyl)azepan-1-yl)(phenyl)methanone] | < 10 | < 10 | < 10
O=C(Cc1ccccc1)N1CCCC(CN2CCc3cc(-c4cn[nH]c4)ccc32)CC1 (stereo not drawn) [Example 55, 1-(4-((5-(1H-pyrazol-4-yl)indolin-1-yl)methyl)azepan-1-yl)-2-phenylethanone] | < 10 | < 10 | < 10
O=C(CCc1ccccc1)N1CCCC(CN2CCc3cc(-c4cn[nH]c4)ccc32)CC1 (stereo not drawn) [Example 56, 1-(4-((5-(1H-pyrazol-4-yl)indolin-1-yl)methyl)azepan-1-yl)-3-phenylpropan-1-one] | < 10 | < 10 | < 10
O=C(CC1CCCCC1)N1CCCC(CN2CCc3cc(-c4cn[nH]c4)ccc32)CC1 (stereo not drawn) [Example 57, 1-(4-((5-(1H-pyrazol-4-yl)indolin-1-yl)methyl)azepan-1-yl)-2-cyclohexylethanone] | < 10 | < 10 | < 10
O=C(C1CCCCC1)N1CCCC(Cn2ccc3cc(-c4cn[nH]c4)ccc32)CC1 (stereo not drawn) [Example 58, (4-((5-(1H-pyrazol-4-yl)-1H-indol-1-yl)methyl)azepan-1-yl)(cyclohexyl)methanone] | < 10 | < 10 | < 10
CC(C)CC(=O)N1CCCC(Cn2ccc3cc(-c4cn[nH]c4)ccc32)CC1 (stereo not drawn) [Example 59, 1-(4-((5-(1H-pyrazol-4-yl)-1H-indol-1-yl)methyl)azepan-1-yl)-3-methylbutan-1-one] | > 10 | < 10 | < 10
CC(C)C(=O)N1CCCC(Cn2ccc3cc(-c4cn[nH]c4)ccc32)CC1 (stereo not drawn) [Example 60, 1-(4-((5-(1H-pyrazol-4-yl)-1H-indol-1-yl)methyl)azepan-1-yl)-2-methylpropan-1-one] | > 10 | < 10 | < 10
O=C(OCc1ccccc1)N1CCC(CN2CCc3cc(-c4cn[nH]c4)ccc32)C1 (stereo not drawn) [Example 62, benzyl 3-((5-(1H-pyrazol-4-yl)indolin-1-yl)methyl)pyrrolidine-1-carboxylate] | > 10 | < 10 | < 10
O=C(NCc1ccccc1)N1CCC(CN2CCc3cc(-c4cn[nH]c4)ccc32)C1 (stereo not drawn) [Example 65, 3-((5-(1H-pyrazol-4-yl)indolin-1-yl)methyl)-N-benzylpyrrolidine-1-carboxamide] | < 10 | < 10 | < 10
CC(C)CNC(=O)N1CCC(CN2CCc3cc(-c4cn[nH]c4)ccc32)C1 (stereo not drawn) [Example 67, 3-((5-(1H-pyrazol-4-yl)indolin-1-yl)methyl)-N-isobutylpyrrolidine-1-carboxamide] | < 10 | < 10 | < 10
CC(C)COC(=O)N1CCC(CN2CCc3cc(-c4cn[nH]c4)ccc32)C1 (stereo not drawn) [Example 69, isobutyl 3-((5-(1H-pyrazol-4-yl)indolin-1-yl)methyl)pyrrolidine-1-carboxylate] | < 10 | < 10 | < 10
O=C(OCc1ccccc1)N1CCC(CN2CCc3cc(-c4cn[nH]c4)ccc32)CC1 [Example 70, benzyl 4-((5-(1H-pyrazol-4-yl)indolin-1-yl)methyl)piperidine-1-carboxylate] | < 10 | < 10 | < 10
CC(O)CC(=O)N1CCC(CN2CCc3cc(-c4cn[nH]c4)ccc32)CC1 (stereo not drawn) [Example 72, 1-(4-((5-(1H-pyrazol-4-yl)indolin-1-yl)methyl)piperidin-1-yl)-3-hydroxybutan-1-one] | > 10 | > 10 | > 10
CC(C)CNC(=O)N1CCC(CN2CCc3cc(-c4cn[nH]c4)ccc32)CC1 [Example 74C, 4-((5-(1H-pyrazol-4-yl)indolin-1-yl)methyl)-N-isobutylpiperidine-1-carboxamide] | > 10 | < 10 | > 10
CC(C)CNC(=O)N1CCC(CN2CCc3cc(-c4cnn(C(=O)NCC(C)C)c4)ccc32)CC1 [Example 74D, N-isobutyl-4-((5-(1-(isobutylcarbamoyl)-1H-pyrazol-4-yl)indolin-1-yl)methyl)piperidine-1-carboxamide] | < 10 | < 10 | < 10
O=C(NCc1ccccc1)N1CCC(CN2CCc3cc(-c4cn[nH]c4)ccc32)CC1 [Example 76, 4-((5-(1H-pyrazol-4-yl)indolin-1-yl)methyl)-N-benzylpiperidine-1-carboxamide] | < 10 | < 10 | < 10
